Test results reported in EP0872239A2 (ELI LILLY AND COMPANY, priority 1997, dated 1998).

How the values were obtained:
cerebral focal stroke = assay: experimental stroke / cerebral ischemia models (Assays 2 and 3); format: in vivo, rats; settings: general statement on "such experiments"; no data given
Experimental: The methodology for testing the compound's effect in ameliorating ischemic cell damage after transient middle cerebral artery occlusion (Zhang, et al., Stroke 26, 1438-43, 1995) is given as one example.
Male rats weighing approximately 300 grams are anesthetized with 3.5% halothane and maintained with 1.0% halothane in 70% N2O and 30% O2 with the use of a face mask. Rectal remperature is maintained at 37°C throughout the surgical procedure. The right femoral artery and vein are cannulated for measuring blood gases before inducing ischemia, monitoring blood pressure during the surgery and administering compound.
Approximately 18 mm of 4-0 surgical nylon suture with a rounded tip is advanced from the external carotid artery into the lumen of the internal carotid artery until it blocks the origin of the middle cerebral artery (MCA). […] Infarct volume is measured blindly with the use of a Global Lab Image analysis program (Data Translation). The infarct area and the ipsilateral and contralateral hemispheric area are calculated in square millimeters by tracing the right and left hemispheres and the ischemic lesion on the computer screen. The volumes in cubic millimeters are determined by multiplying the area by the section interval thickness. Infarct volume is analyzed as a percentage of the whole hemisphere. […]

5-HT1C receptor = target: T1, 5-HT1C receptor (Homo sapiens, UniProt P28335); assay: pharmacological studies, 5-HT1C receptor activity; settings: stated in words only
T1 sequence (P28335 33-458): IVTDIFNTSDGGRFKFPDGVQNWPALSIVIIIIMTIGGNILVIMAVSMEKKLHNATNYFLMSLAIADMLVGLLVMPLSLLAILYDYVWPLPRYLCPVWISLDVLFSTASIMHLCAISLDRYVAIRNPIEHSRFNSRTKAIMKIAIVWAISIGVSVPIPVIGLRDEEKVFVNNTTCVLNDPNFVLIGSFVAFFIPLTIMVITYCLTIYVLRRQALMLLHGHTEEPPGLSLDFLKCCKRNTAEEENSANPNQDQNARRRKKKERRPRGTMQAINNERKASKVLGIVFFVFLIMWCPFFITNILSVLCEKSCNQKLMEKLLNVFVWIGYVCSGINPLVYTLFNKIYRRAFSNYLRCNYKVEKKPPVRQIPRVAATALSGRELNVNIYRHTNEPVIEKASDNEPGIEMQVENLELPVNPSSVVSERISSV

[1] = tested on: muscarinic cholinergic receptor; assay: pharmacological studies, muscarinic cholinergic receptor activity; settings: stated in words only

In the case of Cc1cc2c(s1)Nc1ccccc1N=C2N1CCN(C)CC1 [olanzapine, 2-methyl-4-(4-methyl-1-piperazinyl)-10H-thieno [2,3-b] [1,5] benzodiazepine], the “effect in the treatment or inhibition of cerebral focal stroke” value (cerebral focal stroke) is reported as “significant effect”, the “active at the 5-HT1C receptor” value (5-HT1C receptor) is reported as “active” and the “muscarinic cholinergic receptor activity” value [1] is reported as “has muscarinic cholinergic receptor activity”.
